Data set [1] deals with T1, CCR3 receptor (UniProt P51677).
T1 sequence (P51677 1-355): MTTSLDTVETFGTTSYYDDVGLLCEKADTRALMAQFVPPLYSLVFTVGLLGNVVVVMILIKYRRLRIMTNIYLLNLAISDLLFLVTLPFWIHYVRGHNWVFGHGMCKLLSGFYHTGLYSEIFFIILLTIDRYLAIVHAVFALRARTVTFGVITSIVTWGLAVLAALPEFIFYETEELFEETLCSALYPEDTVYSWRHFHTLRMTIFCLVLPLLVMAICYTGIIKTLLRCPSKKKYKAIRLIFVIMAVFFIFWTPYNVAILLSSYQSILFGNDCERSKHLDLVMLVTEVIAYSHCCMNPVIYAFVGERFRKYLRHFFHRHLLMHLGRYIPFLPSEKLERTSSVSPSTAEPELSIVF
Description: CCR3 Receptor Binding Assay ([125I]-labeled human eotaxin/CCL11 displacement on cells). The conditions noted are these: 0.1 nM [125I]-labeled human eotaxin/CCL11, 60 min at room temperature. How it is done:
Cells were washed once with PBS and resuspended in a binding buffer (25 mM HEPES pH 7.6, 5 mM MgCl2, 1 mM CaCl2, 0.5% BSA, 0.1% NaN3). […] of cell suspension (2×10^5 cells/well) and 0.1 nM [^125I]-labeled human eotaxin/CCL11 (2000 Ci/mmol specific activity) were mixed in a 96-well U-bottom polypropylene plate, and incubated for 60 min at room temperature for the binding reaction. The cell suspension was then transferred to a filtration plate (#MAFB, Millipore), and washed 3 times with the binding buffer containing 0.5 M NaCl, scintillant added, and the radioactivity was counted on a TopCount (Packard). For the determination of non-specific binding, the cell suspension and [^125I]-labeled human eotaxin/CCL11 were incubated in the presence of 500 nM of unlabeled human eotaxin/CCL11. See, lino et al., “Molecular cloning and functional characterization of cynomolgus monkey (Macaca fascicularis) CC chemokine receptor, CCR3,” Cytokine 2002, 19, 276-286.
The biological results are summarized in Table 1, wherein A represents a value no greater than 50 nM, and B represents a value greater than 50 nM but no greater than 500 nM, C represents a value greater than 500 nM but no greater than 5 μM; and D represents a value greater than 5 μM.

In data set [2] the target is T2, hERG channel (Homo sapiens, UniProt Q12809).
T2 construct: purchased Perkin Elmer RBHERGM400UA; host or cells: HEK-293 cells transfected with hERG (membrane preparation)
T2 sequence (Q12809 whole entry): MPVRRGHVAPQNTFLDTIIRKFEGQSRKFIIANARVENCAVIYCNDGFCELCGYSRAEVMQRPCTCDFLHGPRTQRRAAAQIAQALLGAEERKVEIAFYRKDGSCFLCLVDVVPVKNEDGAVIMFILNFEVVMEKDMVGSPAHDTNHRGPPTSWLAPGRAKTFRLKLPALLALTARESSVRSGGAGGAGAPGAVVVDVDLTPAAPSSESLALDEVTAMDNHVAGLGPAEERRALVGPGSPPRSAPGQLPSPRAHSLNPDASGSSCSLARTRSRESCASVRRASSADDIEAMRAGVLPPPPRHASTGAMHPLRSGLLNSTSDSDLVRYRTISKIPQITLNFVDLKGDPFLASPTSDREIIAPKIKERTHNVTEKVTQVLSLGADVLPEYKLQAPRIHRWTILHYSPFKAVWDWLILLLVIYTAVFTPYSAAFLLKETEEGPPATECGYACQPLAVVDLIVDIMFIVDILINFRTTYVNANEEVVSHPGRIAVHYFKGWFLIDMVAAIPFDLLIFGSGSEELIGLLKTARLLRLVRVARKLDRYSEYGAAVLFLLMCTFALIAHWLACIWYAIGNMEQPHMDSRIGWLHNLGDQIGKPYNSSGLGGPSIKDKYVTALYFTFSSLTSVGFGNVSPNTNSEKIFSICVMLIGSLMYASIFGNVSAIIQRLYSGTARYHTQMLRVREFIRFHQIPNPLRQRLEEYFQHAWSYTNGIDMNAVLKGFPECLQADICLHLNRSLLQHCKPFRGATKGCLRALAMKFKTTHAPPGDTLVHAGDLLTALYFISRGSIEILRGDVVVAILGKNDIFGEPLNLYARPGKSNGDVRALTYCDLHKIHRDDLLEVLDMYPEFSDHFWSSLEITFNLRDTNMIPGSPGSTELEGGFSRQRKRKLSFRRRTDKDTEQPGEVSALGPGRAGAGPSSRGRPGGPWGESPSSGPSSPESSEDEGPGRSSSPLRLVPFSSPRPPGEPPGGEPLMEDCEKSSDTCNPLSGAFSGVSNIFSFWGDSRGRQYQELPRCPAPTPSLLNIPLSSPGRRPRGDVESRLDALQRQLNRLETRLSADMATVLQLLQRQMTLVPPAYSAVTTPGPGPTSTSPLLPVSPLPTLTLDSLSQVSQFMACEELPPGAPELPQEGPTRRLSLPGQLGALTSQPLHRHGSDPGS
Description: hERG Receptor Binding Assay (125I-BeKm-1, membranes from HEK-293 cells containing transfected hERG channels). As to conditions: 1 hr at room temperature; for Ki at 1 h: human, pH 7.2, probe 125I-BeKm-1 (0.1 nM final); for Ki: 125I-BeKm-1 0.1 nM final. How it is done: Medium throughput screening of compounds for interaction with the human Ether-a-go-go related gene (hERG) was performed by modification of equilibrium dissociation assays using 125I-labelled peptide BeKm-1. BeKm-1, a scorpion toxin from the Central Asian scorpion Buthus eupeus, selectively blocks the hERG channel. Angelo, K., et al., 2003, Pflugers Arch.-Eur. J. Physiol., 447: 55-63; Chiu, P J S, et al., J. Pharmacol. Sci., 2004, 95: 311-319. Isolated membrane preparations from HEK-293 cells containing transfected hERG channels (hERG K+ Channel Membrane Target Systems™; Cat #, RBHERGM400UA) (Perkin Elmer, Boston, Mass.) were suspended in assay buffer A at a final concentration of 1:150 v/v. Compounds for screening, and non-radiolabelled BeKm-1, as well as 125I-BeKm-1 radioligand (Perkin Elmer; Cat #, NEX-412; Specific Activity 2,200 Ci/mmol), were also reconstituted in Buffer A. Assay components were incubated in 96-well, round-bottom polypropylene plates in the following ratio:
25 μl compound at appropriate concentrations
25 μl radiolabelled BeKm-1 at 0.8 nM (final concentration of 0.1 nM)
150 μl membrane preparation
The assay was incubated with shaking for 1 hr at room temperature. Subsequently, the well contents were transferred to 96-well filtration plates (GF/C multiwell plates (MultiScreen™ HTS; Millipore, 290 Concord Road, Billerica, Mass. 01821 USA; Cat# MSFBN6B-XX pre-soaked in 0.3% polyethyleneimine; Acros Organics, NJ; Cat#178571000). Unbound radioactivity was removed and the membranes washed 4 times with ice-cold Buffer B, under vacuum. Plates were air-dried and bound radioactivity counted on a Packard Top-Count NXT™ microplate scintillation and luminescence counter (Packard Instrument Co., Downers Grove, Ill.). Equilibrium dissociation was analyzed and IC50 and/or Ki values were calculated using GraphPad Prism 4™ software (GraphPad Software, San Diego, Calif.).
Assay Buffer A: ([…] (MP Biomedicals, LLC; 29525 Fountain Parkway, Solon Ohio, 441389; Cat #1688449) in water, pH 7.2 with 1M Tris (Fisher Chemicals, Fair Lawn, N.J. 07410; Cat #, BP-1757-500); 100 μM KCl (Fisher Chemicals, Cat #, BP-366-500); 0.1% BSA (Sigma Aldrich, 3050 Spruce Street, St. Louis, Mo. 63103; Cat #, A3059). Assay Buffer B: 20 mM Tris HCl, pH 7.3; 150 mM NaCl (Fisher Chemicals; Cat #, S78449).
The hERG binding assay results are summarized in Table 2, wherein A represents no measured activity (i.e., a value greater than 100 μM), and B represents a value greater than 10 μM but less than 100 μM and C represents a value less than 10 μM.
A general note: Block of hERG is tested as a sign of cardiac risk.

For eight compounds, Ki results are on record in US8741894B2, “Arylsulfonamide CCR3 antagonists” (Axikin Pharmaceuticals, Inc., priority 2010, dated 2014).

Bounds are passed on as bounds.

For `CC(C)NC(=S)N1CCC(NS(=O)(=O)c2cc(C#N)ccc2Oc2cc(Cl)cc(Cl)c2)CC1` [Compound 36], the Ki in data set [1] lay within 50 to 500 nM. This compound also displayed a Ki at 1 h in data set [2] of 10000 to 100000 nM.
Consider `N#Cc1ccc(Oc2cc(Cl)cc(Cl)c2)c(S(=O)(=O)N2CCC(NS(=O)(=O)c3cccc(F)c3)CC2)c1` [Compound 25, N-(1-(5-cyano-2-(3,5-dichlorophenoxy)phenylsulfonyl)piperidin-4-yl)-3-fluorobenzenesulfonamide], for which the Ki in data set [1] was 50 to 500 nM; in data set [2], over 100000 nM.
On the same counts, the results for `Cc1ccc(S(=O)(=O)N2CCC(NS(=O)(=O)c3cc(C#N)ccc3Oc3cc(Cl)cc(Cl)c3)CC2)cc1` [Compound 30, 5-cyano-2-(3,5-dichlorophenoxy)-N-(1-tosylpiperidin-4-yl)benzenesulfonamide] are 50 to 500 nM and over 100000 nM.
With `CSCCCNC(=S)NC1CCN(S(=O)(=O)c2cc(C#N)ccc2Oc2cc(Cl)cc(Cl)c2)CC1` [Compound 18, 1-(1-(5-cyano-2-(3,5-dichlorophenoxy)phenylsulfonyl)piperidin-4-yl)-3-(3-(methylthio)propyl)thiourea], the Ki in data set [2] is over 100000 nM.
Turning to `N#Cc1ccc(Oc2cc(Cl)cc(Cl)c2)c(S(=O)(=O)N2CCC(NC(=O)Nc3cccc(F)c3)CC2)c1` [Compound 52], the Ki in data set [1] was in the range of 500 to 5000 nM. This compound also returned a Ki at 1 h in data set [2] of over 100000 nM.
In the case of `CS(=O)(=O)N1CCC(NS(=O)(=O)c2cc(C#N)ccc2Oc2cc(Cl)cc(Cl)c2)CC1` [Compound 33], the Ki in data set [1] was 50 to 500 nM. In data set [2], the Ki at 1 h was over 100000 nM.
On the same counts, the results for `CC(C)(C)OC(=O)N1CCC(NS(=O)(=O)c2cc(C#N)ccc2Oc2cc(Cl)cc(Cl)c2)CC1` [Compound 2] are over 5000 nM and over 100000 nM.
Taken in the same sequence, the figures for `CC(=O)N1CCC(NS(=O)(=O)c2cc(C#N)ccc2Oc2cc(Cl)cc(Cl)c2)CC1` [Compound 38] were 50 to 500 nM and over 100000 nM.

As usually defined, the Ki is a measure of affinity in units of concentration, obtained from inhibition or displacement. A high value points to weaker binding.
